pIC50: −log10 of the molar value. Like-named read-outs stand apart in the source and are kept apart here.
Tests used:
PI3K (p110α) kinase = target: T1, PI3K (p110α) kinase (Homo sapiens, UniProt P42336); experiment: PI3K (p110α) kinase assay (PI3K HTRF Assay); assay type: biochemical; settings: in vitro enzyme activity assay, 10 μM PIP2, read-out: PI3K (p110α) enzyme activity_IC50
T1 construct: made in house
Excerpt: Conclusion: The compounds of the present invention have significant inhibitory effect on mTOR/PI3K. Example In Vitro Enzyme Activity Assay 1. The experimental procedures and methods of PI3K (p110α) kinase assay: 1) Experimental Objective
The objective was to evaluate the inhibitory effect of the subject samples on PI3K (p110α) kinase activity at molecular level.
(§1) PerkinElmer Envision 2104 Multilabel Reader.
PI 3-Kinase HTRF Assay (384 wells) was purchased from Upstate (Millipore) company: PI3K (p110α) kinase was made in our lab.
c) Experimental procedures
Each solution was prepared according to the instructions provided in the Kinase PI 3-Kinase HTRF Assay. The kinase reaction was carried out in white 384-well plates (Proxiplate-384 plus), 0.5 μl of DMSO (the concentration was consistent with the highest concentration of DMSO for the test compounds) was added to each of the two control wells with and without enzyme, and then 0.5 μl of a series of different concentrations of the test compounds was added to each well to be tested. The kinase reaction liquid (10 μM substrate PIP2, 0.5 ng PI3K (p110α)) was added to the control well containing enzyme and the test wells, while only working reaction liquid (10 μM substrate PIP2) was added to the control well without enzyme, and finally, 5 μM ATP working reaction liquid was added to activate the reaction. After the reaction was carried out at room temperature for 30 min, the stop solution was added to each well to terminate the kinase reaction. After the mixture was fully mixed, the detection liquid was added to each well and fully mixed. The plate was sealed with Parafilm and placed in the dark. After incubated overnight, the mixture was detected.
(§2) The IC50 value was calculated through the GraphPad software after plotting the relative inhibitory rate versus concentration.

mTOR kinase = target: T2, mTOR kinase (Homo sapiens, UniProt P42345); experiment: mTOR kinase assay; assay type: biochemical; settings: in vitro enzyme activity assay; ATP 100 μM; read-out: mTOR enzyme activity_IC50
T2 construct: made in house
Method: 2. Experimental Procedures and Methods of the mTOR Kinase Assay
The objective was to evaluate the inhibitory effect of the subject samples on the mTOR kinase activity at molecular level.
as §1
The mTOR Kinase Assay (384 wells) was purchased from PerkinElmer company; the mTOR kinase was made in our lab.
Each solution was prepared according to the instructions provided in the mTOR Kinase Assay. The kinase reaction was carried out in white 384-well plates (Proxiplate-384 plus). 2.5 μl of DMSO (the concentration was consistent with the highest concentration of DMSO for the test compounds) was added to each of the two control wells with and without enzyme, and then 2.5 μl of a series of different concentrations of the test compounds was added to each test well. ULight-4E-BP1 (Thr37/46) PeptideATP mix (the final concentration of ATP was 100 μM) and 5 μl of mTOR kinase were added to the control well containing enzyme as well as the test wells, and fully mixed. The plate was sealed with Parafilm and incubated for 2 h. Then 5 μl of stop solution was added and incubated for 5 minutes. Afterwards, 5 μl of Detection Mix (Eu-anti-phospho-4E-BP1 (Thr37/46) Antibody, the final concentration was 2 nM) was added and incubated for 1 h, and then the mixture was detected.
as §2

MCF-7 cells = experiment: In vitro test of cell activity (MCF-7 cells, insulin stimulation, ELISA-One fluorescence); assay type: cell-based; settings: Homo sapiens, MCF7, MCF-7 cells; for inhibition at 1 µM: conc. 1 μM; for inhibition at 0.5 µM: conc. 0.5 μM; for inhibition at 0.25 µM: conc. 0.25 μM
In short: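 MCF-7 cells, seeded at 2.5×10^4/well in 10% FBS medium, were given compound in serum-free medium for 2 h at one concentration (screen) or a series (IC50). Insulin stimulation followed at […] final for 30 min; lysates assayed by ELISA-One sandwich immunoassay with fluorescence read-out.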

T1 sequence (P42336 whole entry): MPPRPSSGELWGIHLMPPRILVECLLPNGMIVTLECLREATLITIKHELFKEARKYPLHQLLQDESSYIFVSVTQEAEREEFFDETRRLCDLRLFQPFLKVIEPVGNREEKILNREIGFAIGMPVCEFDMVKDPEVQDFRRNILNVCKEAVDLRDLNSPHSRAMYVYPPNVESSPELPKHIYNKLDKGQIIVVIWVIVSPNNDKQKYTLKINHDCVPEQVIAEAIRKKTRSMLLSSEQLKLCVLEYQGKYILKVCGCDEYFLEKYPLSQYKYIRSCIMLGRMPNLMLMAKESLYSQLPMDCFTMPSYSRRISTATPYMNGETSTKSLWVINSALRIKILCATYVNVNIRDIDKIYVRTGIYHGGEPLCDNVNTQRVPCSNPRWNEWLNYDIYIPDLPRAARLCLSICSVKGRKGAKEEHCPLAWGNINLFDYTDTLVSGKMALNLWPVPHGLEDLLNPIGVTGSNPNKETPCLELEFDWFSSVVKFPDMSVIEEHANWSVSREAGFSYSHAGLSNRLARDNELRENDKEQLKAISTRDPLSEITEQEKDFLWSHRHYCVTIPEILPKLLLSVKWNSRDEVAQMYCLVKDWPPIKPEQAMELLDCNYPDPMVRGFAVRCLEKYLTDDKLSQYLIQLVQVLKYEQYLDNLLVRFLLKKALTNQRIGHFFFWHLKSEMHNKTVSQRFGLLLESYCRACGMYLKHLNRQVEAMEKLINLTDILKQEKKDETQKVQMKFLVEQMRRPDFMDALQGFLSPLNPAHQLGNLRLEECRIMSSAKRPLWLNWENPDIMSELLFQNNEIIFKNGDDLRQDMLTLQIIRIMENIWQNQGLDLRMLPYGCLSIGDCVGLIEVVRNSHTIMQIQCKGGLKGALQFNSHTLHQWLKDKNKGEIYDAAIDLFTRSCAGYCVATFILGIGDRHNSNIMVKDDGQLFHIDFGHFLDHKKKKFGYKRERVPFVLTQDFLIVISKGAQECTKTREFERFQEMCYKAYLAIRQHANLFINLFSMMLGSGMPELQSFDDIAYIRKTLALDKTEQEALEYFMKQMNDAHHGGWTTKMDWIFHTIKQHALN

| SMILES | pIC50 (PI3K (p110α) kinase) | pIC50 (mTOR kinase) | inhibition at 1 µM (MCF-7 cells; read-out: % inhibition AKT) | inhibition at 1 µM (MCF-7 cells; read-out: % inhibition p70s6k) | pIC50 (MCF-7 cells; read-out: IC50 p-AKT) | pIC50 (MCF-7 cells; read-out: IC50 p-p70S6K) | inhibition at 0.5 µM (MCF-7 cells; read-out: % inhibition AKT) | inhibition at 0.5 µM (MCF-7 cells; read-out: % inhibition p70s6k) | inhibition at 0.25 µM (MCF-7 cells; read-out: % inhibition AKT) | inhibition at 0.25 µM (MCF-7 cells; read-out: % inhibition p70s6k) |
| --- | --- | --- | --- | --- | --- | --- | --- | --- | --- | --- |
| COc1ncc(-c2ccc3nccc(=O)n3c2)cc1NS(=O)(=O)c1ccc(F)cc1F [compound 1, 2,4-difluoro-N-(2-methoxy-5-(4-oxo-4H-pyrido[1,2-a]pyrimidin-7-yl)pyridin-3-yl)benzsulfamide] | 8.00 to 9.00 | 7.30 to 8.00 | 97.5% | 42.4% | ≥ 7.30 | 7.00 to 7.30 |  |  |  |  |
| COc1ncc(-c2ccc3nccc(=O)n3c2)cc1NS(=O)(=O)c1ccc(F)cc1Cl [compound 25] | 8.00 to 9.00 | 7.30 to 8.00 | 95.1% | 94.1% | ≥ 7.30 | 7.00 to 7.30 |  |  |  |  |
| COc1ncc(-c2ccc3nccc(=O)n3c2)cc1NS(=O)(=O)c1ccc(F)cc1C [compound 26] | 8.00 to 9.00 | 7.30 to 8.00 | 95.6% | 93.7% | ≥ 7.30 | 7.00 to 7.30 |  |  |  |  |
| COc1ncc(-c2ccc3nccc(=O)n3c2)cc1NS(=O)(=O)c1ccc(C)cc1F [compound 28] | 8.00 to 9.00 | 7.30 to 8.00 | 96.2% | 93.9% | ≥ 7.30 | 7.00 to 7.30 |  |  |  |  |
| COc1ncc(-c2ccc3nccc(=O)n3c2)cc1NS(=O)(=O)c1ccccc1Cl [compound 30] | ≥ 9.00 | 7.30 to 8.00 | 95% | 93.4% | ≥ 7.30 | 7.00 to 7.30 |  |  |  |  |
| COc1ncc(-c2ccc3nccc(=O)n3c2)cc1NS(=O)(=O)c1ccc(Cl)s1 [compound 36] | 8.00 to 9.00 | 8.00 to 9.00 |  |  | ≥ 7.30 | ≥ 7.30 | 96.4% | 94.7% |  |  |
| COc1ncc(-c2ccc3ncc(F)c(=O)n3c2)cc1NS(=O)(=O)c1ccc(F)cc1F [compound 61, 2,4-difluoro-N-(5-(3-fluoro-4-oxo-4H-pyrido[1,2-a]pyrimidin-7-yl)-2-methoxypyridin-3-yl)benzsulfamide] | 7.30 to 8.00 | ≥ 9.00 |  |  | ≥ 7.30 | ≥ 7.30 | 78.9% | 89.7% |  |  |
| COc1ncc(-c2ccc3ncc(C)c(=O)n3c2)cc1NS(=O)(=O)c1ccc(F)cc1F [compound 81, 2,4-difluoro-N-(2-methoxy-5-(3-methyl-4-oxo-4H-pyrido[1,2-a]pyrimidin-7-yl)pyridin-3-yl)benzsulfamide] | 8.00 to 9.00 | 8.00 to 9.00 |  |  | ≥ 7.30 | 6.60 to 7.00 | 90.1% | 85.5% |  |  |
| COc1ncc(-c2ccc3ncc(C)c(=O)n3c2)cc1NS(=O)(=O)c1ccc(F)cc1Cl [compound 83] | ≥ 9.00 | 8.00 to 9.00 |  |  | ≥ 7.30 | 7.00 to 7.30 | 95% | 87.9% |  |  |
| COc1ncc(-c2ccc3ncc(OC)c(=O)n3c2)cc1NS(=O)(=O)c1ccc(F)cc1Cl [compound 104] | 8.00 to 9.00 | 7.30 to 8.00 |  |  | ≥ 7.30 | ≥ 7.30 | 95.2% | 91.7% |  |  |
| COc1ncc(-c2ccc3ncc(Cl)c(=O)n3c2)cc1NS(=O)(=O)c1ccc(F)cc1F [compound 132, N-(5-(3-chloro-4-oxo-4H-pyrido[1,2-a]pyrimidin-7-yl)-2-methoxypyridin-3-yl)-2,4-difluorobenzsulfamide] | 8.00 to 9.00 | 8.00 to 9.00 |  |  | ≥ 7.30 | 6.60 to 7.00 | 93% | 88.8% |  |  |
| COc1ncc(-c2ccc3ncc(Cl)c(=O)n3c2)cc1NS(=O)(=O)c1ccc(F)cc1Cl [compound 135] | ≥ 9.00 | 8.00 to 9.00 |  |  | ≥ 7.30 | 7.00 to 7.30 | 95.2% | 87.6% |  |  |
| COc1ncc(-c2ccc3ncc(Cl)c(=O)n3c2)cc1NS(=O)(=O)c1ccc(Cl)s1 [compound 144] | ≥ 9.00 | ≥ 9.00 |  |  | ≥ 7.30 | ≥ 7.30 | 95.8% | 89.4% |  |  |
| COc1ncc(-c2ccc3ncc(Cl)c(=O)n3c2)cc1NS(=O)(=O)c1c(Cl)cccc1Cl [compound 149] | 8.00 to 9.00 | 8.00 to 9.00 |  |  | ≥ 7.30 | ≥ 7.30 |  |  | 92% | 80.7% |
| COc1ncc(-c2ccc3ncc(Cl)c(=O)n3c2)cc1NS(=O)(=O)c1sccc1Cl [compound 150] | ≥ 9.00 | 8.00 to 9.00 |  |  | ≥ 7.30 | ≥ 7.30 |  |  | 93.5% | 82.3% |
| COc1ncc(-c2ccc3ncc(Cl)c(=O)n3c2)cc1NS(=O)(=O)c1sc(C)nc1C [compound 153] | ≥ 9.00 | 8.00 to 9.00 |  |  | ≥ 7.30 | ≥ 7.30 |  |  | 91.6% | 83.5% |
| CCOc1cnc2ccc(-c3cnc(OC)c(NS(=O)(=O)c4ccc(Cl)s4)c3)cn2c1=O [compound 174] | ≥ 9.00 | 7.00 to 7.30 |  |  | ≥ 7.30 | ≥ 7.30 |  |  | 92.5% | 78.4% |
